Assay results from US20160046592A1, “PHARMACEUTICAL COMPOSITION FOR THE TREATMENT OF DIABETES” (Ajinomoto Co., Inc., priority 2013, published 2016).
pEC50: −log10 of the molar value. Where a name gives a salt, the structure may show the parent alone.

Target: T1, human GYS1 (glycogen synthase) (Homo sapiens, UniProt P13807)
T1 construct: made in house; host or cells: HEK293T
T1 sequence (P13807 1-737): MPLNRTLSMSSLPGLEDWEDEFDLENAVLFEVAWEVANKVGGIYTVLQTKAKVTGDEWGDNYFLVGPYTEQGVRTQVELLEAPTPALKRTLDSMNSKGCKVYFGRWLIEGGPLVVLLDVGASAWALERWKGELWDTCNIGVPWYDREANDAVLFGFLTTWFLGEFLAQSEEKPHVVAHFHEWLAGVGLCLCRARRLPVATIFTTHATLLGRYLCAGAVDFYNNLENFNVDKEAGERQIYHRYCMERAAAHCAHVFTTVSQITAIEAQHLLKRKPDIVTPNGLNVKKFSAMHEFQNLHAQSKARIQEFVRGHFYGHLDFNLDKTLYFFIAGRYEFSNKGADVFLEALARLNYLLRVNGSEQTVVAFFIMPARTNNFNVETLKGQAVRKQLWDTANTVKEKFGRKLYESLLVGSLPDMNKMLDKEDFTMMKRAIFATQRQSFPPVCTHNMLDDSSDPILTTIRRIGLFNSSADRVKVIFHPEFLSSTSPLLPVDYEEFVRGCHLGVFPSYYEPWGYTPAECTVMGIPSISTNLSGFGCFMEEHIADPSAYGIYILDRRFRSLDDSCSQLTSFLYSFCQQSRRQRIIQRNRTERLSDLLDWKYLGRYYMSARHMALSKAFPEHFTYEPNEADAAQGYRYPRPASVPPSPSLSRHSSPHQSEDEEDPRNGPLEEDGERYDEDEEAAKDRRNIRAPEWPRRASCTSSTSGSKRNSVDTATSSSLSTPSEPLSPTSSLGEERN
Experiment: Measurement of glycogen synthase activity
Format: biochemical
Details: concentration causing 50% increase in relative activity; 100% = compound of Example 1 of WO/2011/058154 at 10 μM; 10 mM Glucose-6-phosphate; 37° C. for 25 minutes (Examples 1 to 61 and 67 to 82) or 20 minutes (Examples 62 to 66); absorbance at 340 nm
Experimental: A human GYS1 expression plasmid (pCDNA3.1(+)-hGYS1) was constructed by the following method. By using a human skeletal muscle cDNA of Human MTC Panel I (Takara Bio Inc., 636742) as a template, a human GYS1 gene was amplified by a PCR method using cloning primers (Forward Primer: ATGCCTTTAAACCGCAC, Reverse Primer: TTAGTTACGCTCCTCGC). By using the amplified human GYS1 sequence as a template, restriction enzyme sequences were added by a PCR method using sub-cloning primers (Forward Primer: […], and Reverse Primer: […]), and then the human GYS1 gene was introduced between Xho I and Xba I sites of pCDNA3.1(+) (Invitrogen, V790-20).
Glycogen synthase was prepared by the following method. Human kidney-derived HEK293T cells were seeded in a dish (Thermo Fisher Scientific K.K., 168381) by using a 10% FBS-containing DMEM (Nacalai Tesque, Inc., 0845874) medium, and cultured overnight. Then, by using Lipofectamine LTX (Invitrogen, 15338-100), the cells were transfected with the human GYS1 expression vector according to the attached manual. After culturing under conditions of 37° C. and 5% CO2 for 2 days, the resultant was lysed in a lysis buffer (50 mM Tris-HCl (pH 8.0), 10 mM EDTA, 2 mM EGTA, 100 mM NaF, 1 mM PMSF, 1 mM DTT, and 1× Complete (Roche, 1873580)), homogenized, and then centrifuged at 16000×g at 4° C. for 15 minutes. The precipitated fraction re-dissolved by adding the lysis buffer was used as a glycogen synthase for evaluation.
The glycogen synthase activity was measured by the following method. To a polystyrene 96-well plate, solutions each containing 30 mM glycylglycine (pH 7.3), 40 mM KCl, 20 mM MgCl2, 9.2% DMSO containing one of the test compounds at one of various concentrations, and 10 mM Glucose-6-phosphate (Sigma-Aldrich, G7879) were added at 12 μL/well.
Next, a substrate solution containing 30 mM glycylglycine (pH 7.3), 4.3 mg/mL glycogen (Sigma-Aldrich, G8876), 21.6 mM UDP-glucose (Sigma-Aldrich, U4625), 21.6 mM phosphoenolpyruvic acid (Sigma-Aldrich, P0564), and 4.05 mM NADH (Sigma-Aldrich, N8129) was added at 18 μL/well.
Moreover, an enzyme solution containing 50 mM Tris-HCl (pH 8.0), 27 mM DTT (NACALAI TESQUE, INC., 14128-04), 0.2 mg/mL bovine serum albumin, 0.17 mg/mL glycogen synthase, and 1.5 μL pyruvate kinase/lactate dehydrogenase solution (Sigma-Aldrich, P0294) was added at 18 μL/well to prepare reaction solutions. After the reaction solutions were incubated (at 37° C. for 25 minutes for Examples 1 to 61 and 67 to 82 or at 37° C. for 20 minutes for Examples 62 to 66), the absorbance at 340 nm was measured by using Benchmark Plus (Bio-Rad Laboratories, Inc.).
The activity of each test compound was calculated by the following method. The absorbance at 340 nm of the reaction solution containing the compound and DMSO was subtracted from the absorbance at 340 nm of a reaction solution not containing the compound but containing only DMSO to calculate the change (ΔA340) in absorbance. The relative activity (%) of the test compound at each of the various concentrations was calculated, where the ΔA340 of a reaction solution containing the compound of Example 1 of WO/2011/058154 at a final concentration of 10 μM was taken as 100%. EC50 representing the concentration of the compound at which an increase in the relative activity by 50% was caused was calculated using XLfit (idbs).

SMILES	pEC50
COC(C)(C)CN(CC(=O)O)C(=O)c1cccc(COc2ccc(-c3cc(F)c(F)cc3SC)cc2)c1 [Example 23, 2-[[3-[[4-(4,5-Difluoro-2-methylsulfanyl-phenyl)phenoxy]methyl]benzoyl]-(2-methoxy-2-methyl-propyl)amino]acetic Acid]	7.77
CS(=O)(=O)CCN(CC(=O)O)C(=O)c1cccc(COc2ccc(-c3cc(F)c(F)c4ccoc34)cc2)c1 [Example 8, 2-[[3-[[4-(4,5-Difluorobenzofuran-7-yl)phenoxy]methyl]benzoyl]-(2-methylsulfonylethyl)amino]acetic Acid]	7.82
CC(=O)N1CCC(CN(CC(=O)O)C(=O)c2cccc(COc3ccc(-c4cc(F)c(F)c5ccoc45)cc3)c2)CC1 [Example 81, 2-[(1-Acetyl-4-piperidyl)methyl-[3-[[4-(4,5-difluorobenzofuran-7-yl)phenoxy]methyl]benzoyl]amino]acetic Acid]	7.70
CSc1cc(F)c(F)cc1-c1ccc(OCc2cccc(C(=O)N(CC(=O)O)CC(=O)N3CCCC3)c2)cc1 [Example 25, 2-[[3-[[4-(4,5-Difluoro-2-methylsulfanyl-phenyl)phenoxy]methyl]benzoyl]-(2-oxo-2-pyrrolidin-1-yl-ethyl)amino]acetic Acid]	7.82
COC1CCN(C(=O)c2cccc(COc3ccc(-c4cc(F)c(F)cc4SC)cc3)c2)C1C(=O)O (stereo in doubt) [Example 33, (2S,3S)-1-[3-[[4-(4,5-Difluoro-2-methylsulfanyl-phenyl)phenoxy]methyl]benzoyl]-3-methoxy-pyrrolidine-2-carboxylic Acid]	7.68
CSc1cc(F)c(F)cc1-c1ccc(OCc2cccc(C(=O)N(CC(=O)O)Cc3nnc(C)o3)c2)cc1 [Example 73, 2-[[3-[[4-(4,5-Difluoro-2-methylsulfanyl-phenyl)phenoxy]methyl]benzoyl]-[(5-methyl-1,3,4-oxadiazol-2-yl)methyl]amino]acetic Acid]	7.82
CS(=O)(=O)CCCN(CC(=O)O)C(=O)c1cccc(COc2ccc(-c3cc(F)c(F)c4ccoc34)cc2)c1 [Example 77, 2-[[3-[[4-(4,5-Difluorobenzofuran-7-yl)phenoxy]methyl]benzoyl]-(3-methylsulfonylpropyl)amino]acetic Acid]	7.70
CNS(=O)(=O)CCN(CC(=O)O)C(=O)c1cccc(COc2ccc(-c3cc(F)c(F)cc3SC)cc2)c1 [Example 56, 2-[[3-[[4-(4,5-Difluoro-2-methylsulfanyl-phenyl)phenoxy]methyl]benzoyl]-[2-(methylsulfamoyl)ethyl]amino]acetic Acid]	> 8.52
CSc1cc(F)c(F)cc1-c1ccc(OCc2cccc(C(=O)N(CCC(C)O)CC(=O)O)c2)cc1 (stereo not shown) [Example 21, 2-[[3-[[4-(4,5-Difluoro-2-methylsulfanyl-phenyl)phenoxy]methyl]benzoyl]-(3-hydroxybutyl)amino]acetic Acid]	7.82
CSc1cc(F)c(F)cc1-c1ccc(OCc2cccc(C(=O)N(CC(=O)O)C3CCNCC3)c2)cc1 [Example 36, 2-[[3-[[4-(4,5-Difluoro-2-methylsulfanyl-phenyl)phenoxy]methyl]benzoyl]-(4-piperidyl)amino]acetic Acid Trifluoroacetate]	7.68
O=C(O)CN(C(=O)c1cccc(COc2ccc(-c3cc(F)c(F)c4ccoc34)cc2)c1)C1CCNC1=O (stereo not shown) [Example 82, 2-[[3-[[4-(4,5-Difluorobenzofuran-7-yl)phenoxy]methyl]benzoyl]-(2-oxopyrrolidin-3-yl)amino]acetic Acid]	7.72
CSc1cc(F)c(F)cc1-c1ccc(OCc2cccc(C(=O)N(CC(=O)O)Cc3cnco3)c2)cc1 [Example 47, 2-[[3-[[4-(4,5-Difluoro-2-methylsulfanyl-phenyl)phenoxy]methyl]benzoyl]-(oxazol-5-ylmethyl)amino]acetic Acid]	7.74
CSc1cc(F)c(F)cc1-c1ccc(OCc2cccc(C(=O)N3[C@@H](CO)CC[C@H]3C(=O)O)c2)cc1 [Example 64, (2S,5R)-1-[3-[[4-(4,5-Difluoro-2-methylsulfanyl-phenyl)phenoxy]methyl]benzoyl]-5-(hydroxymethyl)pyrrolidine-2-carboxylic Acid]	7.66
CSc1cc(F)c(F)cc1-c1ccc(OCc2cccc(C(=O)N(CCCS(C)(=O)=O)CC(=O)O)c2)cc1 [Example 32, 2-[[3-[[4-(4,5-Difluoro-2-methylsulfanyl-phenyl)phenoxy]methyl]benzoyl]-(3-methylsulfonylpropyl)amino]acetic Acid]	7.70
CSc1cc(F)c(F)cc1-c1ccc(OCc2cccc(C(=O)N(CC(=O)O)Cc3ccccn3)c2)cc1 [Example 20, 2-[[3-[[4-(4,5-Difluoro-2-methylsulfanyl-phenyl)phenoxy]methyl]benzoyl]-(2-pyridylmethyl)amino]acetic Acid Trifluoroacetate]	8.19
CSc1cc(F)c(F)cc1-c1ccc(OCc2cccc(C(=O)N(CC(=O)O)Cc3cn(C)cn3)c2)cc1 [Example 74, 2-[[3-[[4-(4,5-Difluoro-2-methylsulfanyl-phenyl)phenoxy]methyl]benzoyl]-[(1-methylimidazol-4-yl)methyl]amino]acetic Acid]	8.10
CSc1cc(F)c(F)cc1-c1ccc(OCc2cccc(C(=O)N3C[C@H](C(N)=O)C[C@H]3C(=O)O)c2)cc1 [Example 61, (2S,4R)-4-Carbamoyl-1-[3-[[4-(4,5-difluoro-2-methylsulfanyl-phenyl)phenoxy]methyl]benzoyl]pyrrolidine-2-carboxylic Acid]	7.72
CCNCCN(CC(=O)O)C(=O)c1cccc(COc2ccc(-c3cc(F)c(F)cc3SC)cc2)c1 [Example 43, 2-[[3-[[4-(4,5-Difluoro-2-methylsulfanyl-phenyl)phenoxy]methyl]benzoyl]-[2-(ethylamino)ethyl]amino]acetic Acid Trifluoroacetate]	7.72
CSc1cc(F)c(F)cc1-c1ccc(OCc2cccc(C(=O)N(CC(=O)O)CC3CCNCC3)c2)cc1 [Example 35, 2-[[3-[[4-(4,5-Difluoro-2-methylsulfanyl-phenyl)phenoxy]methyl]benzoyl]-(4-piperidylmethyl)amino]acetic Acid Trifluoroacetate]	7.72
